The values below come from patent US5750566A, “Synthetic excitatory amino acids” (Eli Lilly and Company, priority 1995, dated 1998).

Usually ED50 stands for the midpoint of the dose-response relation. As a reminder, the EC50 is the concentration that produces a half-maximal response.

The subject of assay [1] is Long Evans rats. Particulars: statement about clinically proven anxiolytics; cited from earlier work.
The subject of assay [2] is mice. The conditions noted are these: statement about clinically proven anxiolytics; cited from earlier work.
Assay [3] has as its system metabotropic glutamate receptors. In words: Displacement of (1S,3R)-ACPD-sensitive [3H]glutamate binding to rat brain cell membranes (receptor binding). Particulars: crude membranes of rat forebrain; compounds 3 and 8 tested as mixture of enantiomers, 6 and 7 as pure enantiomers; read-out: IC50 (concentration that inhibited 50% [3H]glutamate binding). The procedure: The binding of [^3 H]glutamate ([^3 H]Glu) was conducted with crude membranes of rat forebrain as described by Schoepp and True. Schoepp and True, Neuroscience Lett., 145, 100-104 (1992); Wright, McDonald, and Schoepp, J. Neurochem., 63, 938-945 (1994). The concentration of the formula I compound that inhibited 50% binding (IC50), or the percent displacement of [^3 H]Glu at a 10 μM or 100 μM concentration of the formula I compound, is shown in Table I.

Assay [4] has as its system Long Evans rats. In words: Fear potentiated startle model of anxiety. Type of assay: in vivo, rat (male Long Evans). An excerpt: In the fear potentiated startle model, animals are exposed to a neutral stimulus such as light (conditioned stimulus) with an aversive stimulus such as a shock (unconditioned stimulus). Following conditioning, when the animals are presented with a loud acoustic stimulus, larger startle responses are elicited when the startle stimulus is preceded by light.
(§1) Male Long Evans rats (180-400 g) or male NIH Swiss mice (18-35 g) were obtained from Harlan Sprague-Dawley, Cumberland, Ind., USA and acclimated at least 3 days before testing. Animals were housed at 23±2° C.(relative humidity 30% to 70%) and given Purina Certified Rodent Chow and water ad libitum. The photoperiod was 12 hours of light and 12 hours of dark, with dark onset at approximately 1800 hours.
(§2) Test compounds were dissolved in a vehicle of purified water and neutralized with 5N NaOH to a pH of 7-8 when applicable. […] Control animals received the respective vehicle.
SL-LAB (San Diego Instruments, San Diego, Calif.) chambers were used for conditioning sessions and for the production and recording of startle responses. A classical conditioning procedure was used to produce potentiation of startle responses. Briefly, on the first 2 days, rats were placed into dark startle chambers in which shock grids were installed. […]

Assay [5] has as its system Long Evans rats. The experiment in a line: Auditory startle after diazepam withdrawal. The class given is in vivo, rat (Long Evans).
Assay [6] has as its target cAMP-linked metabotropic glutamate receptors (rat cerebral cortex). In words: Inhibition of forskolin-stimulated cAMP formation in rat cerebral cortex. The class given is biochemical. The procedure:
(§3) The formula I compounds are effective in affecting the cAMP-linked metabotropic glutamate receptors. Representative compounds were tested for their ability to decrease forskolin-stimulated cAMP formation in the rat hippocampus and the rat cerebral cortex, using the procedures described in Schoepp and Johnson. Schoepp and Johnson, Neurochem. Int., 22, 277-283 (1993).

The target in assay [7] is cAMP-linked metabotropic glutamate receptors (rat hippocampus). The experiment in a line: Inhibition of forskolin-stimulated cAMP formation in rat hippocampus. Type of assay: biochemical. The procedure: as §3
(In general: Cyclic AMP is a second messenger, typically raised through Gs and lowered through Gi signalling.)

The subject of assay [8] is mice. The experiment in a line: Automated elevated plus maze model of anxiety. The class given is in vivo, mouse (male NIH Swiss). The conditions noted are these: five-minute test. The method, then:
The elevated plus maze model is based upon the natural aversion of rodents to height and open spaces.
as §1, §2
Automated Elevated Plus Maze
Construction of the elevated plus-maze was based on a design validated for mice by Lister (1987). The entire maze was made of clear Plexiglas. The maze was comprised of two open arms (30×5×0.25 cm) and two enclosed arms (30×5×15 cm). The floor of each maze arm was corrugated to provide texture. The arms extended from a central platform and angled at 90 degrees from each other. The maze was elevated to a height of 45 cm above the floor and illuminated by red light. Individual infrared photocells were mounted along each arm of the maze to monitor closed, open, or nosepoke activity. Mice were individually placed on the central platform of the maze and the number of closed arm, open arm, and nosepoke (poking head only into open arm from closed arm of maze) counts were recorded and used as a measure of arm entries and time spent on various sections of the maze over a five-minute test period.

Assay [9] deals with Long Evans rats. In words: Auditory startle after nicotine withdrawal. The class given is in vivo, rat (Long Evans). The method, then: This cessation of drug dosing elicits an increased startle response to auditory stimuli.
Long Evans rats (200-400 g; Harlan Sprague Dawley, Columbus, Ind.) were individually housed in a controlled environment on a 12 hour light-dark cycle and given free access to food (Purina Rodent Chow) and water. Rats were anesthetized with isoflurane and Alzet osmotic pumps (Alza Corporation) were implanted subcutaneously.
Test compound was dissolved in a vehicle of purified water and neutralized with 5N NaOH to a PH of 7-8 when applicable. […] Nicotine (Research Biochemicals Inc., Natick, Mass.) was dissolved in saline. Control animals received the respective vehicle.
Twelve days following subcutaneous implantation of pumps, rats were anesthetized with isoflurane and the pumps were removed. During withdrawal (following pump removal), the auditory startle response (peak amplitude, Vmax) of individual rats was recorded using San Diego Instruments startle chambers (San Diego, Calif.). Startle sessions consisted of a 5-minute adaptation period at a background noise level of 70±2 dBA immediately followed by 25 presentations of auditory stimuli (120±2 dBA noise, 50 ms duration) presented at 8-second intervals. Peak startle amplitudes were then averaged for all 25 presentations of stimuli for each session and all data are presented here as overall session means. Auditory startle responding was evaluated daily on withdrawal days 1,2,3,4 or 5. Baseline startle responding was evaluated prior to pump removal on day 12.

Assay [10] relates to cAMP-linked metabotropic glutamate receptors. The conditions noted are these: literature; cited from earlier work.
The subject of assay [11] is PI-linked metabotropic glutamate receptors. The conditions noted are these: literature; for L-CCG-I at higher concentrations; cited from earlier work.

Counter-ions that a name gives are not always drawn.

As for `O=C1CC2(CCCC2)CC(=O)N1CCCCN1CCN(c2ncccn2)CC1` [buspirone hydrochloride], the “reduction of fear (increased startle response) associated with presentation of light” value in assay [1] is on record as “effective at reducing the fear (increased startle response)”. Moreover, the “reduction of fear of open spaces in elevated plus maze” value in assay [2] was “reducing the fear of open spaces”.
Consider `N[C@@]1(C(=O)O)CC[C@H]2[C@@H](C(=O)O)[C@H]21` (racemic) [Compound 8, (1SR,2SR,5RS,6RS) 2-Aminobicyclo[3.1.0]hexane-2,6-dicarboxylic Acid], for which, in assay [3], the IC50 is 3200 nM.
Consider `CN1C(=O)CN=C(c2ccccc2)c2cc(Cl)ccc21` [Diazepam, reference compound], for which, in [4] (Rattus norvegicus, po, read-out: ED50, fear potentiated startle), the ED50 was found to be 0.4 mg/kg. Also, in [5] (30 mg/kg, i.p. daily 60 minutes before evaluation, days 1 through 4, vs diazepam control), the “increased reactivity following diazepam cessation with diazepam replacement” value was “did not show increased reactivity”. Besides, the “increased startle responding with diazepam replacement” value in assay [5] (replacement 3 and 10 mg/kg, i.p.) is “did not block the increased startle responding”. Also, the “increased reactivity with diazepam replacement” value in assay [5] (replacement 3 and 10 mg/kg, i.p., in some instances) was “further increased reactivity”. In addition, the “reduction of fear (increased startle response) associated with presentation of light” value in assay [1] is “effective at reducing the fear (increased startle response)”. Further, the “reduction of fear of open spaces in elevated plus maze” value in [2] is reported as “reducing the fear of open spaces”.
Take `NC1(C(=O)O)CCC2C(C(=O)O)C21` (single isomer, unassigned; (+)) [Compound 6, (+)-2-Aminobicyclo[3.1.0]hexane-2,6-dicarboxylic Acid]: the IC50 in [3] turned out to be 180 nM. Further, the EC50 in [6] amounted to 55 ± 17 nM; in assay [7], 36 ± 15 nM. Also, the nosepoke counts result in assay [8] (oral, 3 mg/kg) is listed as “significant increase”. Also, in assay [8] (oral, 1, 3 and 10 mg/kg), the open arm activity result was “significant increases”. Moreover, the “closed arm activity counts” value in [8] (oral, any dose) is recorded as “not significantly altered”. Besides, the “attenuation of heightened startle” value in assay [9] (3 mg/kg, p.o., compared to nicotine controls) is reported as “significant attenuation”. For the same molecule, the median effective dose (ED50) in [9] (Rattus norvegicus, ip, compared to nicotine controls, route printed i.p., read-out: ED50, attenuation of nicotine withdrawal-induced heightened startle) came out at 0.7 mg/kg; in assay [5] (Rattus norvegicus, po, read-out: ED50, attenuation of diazepam withdrawal-enhanced startle, p.o., compared to control responding), 0.1 mg/kg. The “withdrawal-induced increase in startle responding after pretreatment” value in assay [9] (pretreatment, nicotine withdrawal) is recorded as “dose-dependent blockade”. The “attenuation of enhanced startle” value in assay [5] (0.1 and 0.3 mg/kg, p.o., compared to control responding) is given as “significantly attenuated enhanced startle”. Besides, the “expected increase in startle responding following cessation of diazepam, after pretreatment” value in assay [5] (pretreatment, diazepam withdrawal) is listed as “blocked the expected increase in startle responding”.
With `NC1(C(=O)O)CCC2C(C(=O)O)C21` (single isomer, unassigned; (-)) [Compound 7, (-)-2-Aminobicyclo[3.1.0]hexane-2,6-dicarboxylic Acid], the IC50 in assay [3] was 161000 nM. The EC50 in assay [6] was 22000 ± 3400 nM; in [7] it was 29400 ± 3040 nM. Besides, the “ED50, fear potentiated startle” value in [4] (p.o., Inactive = at highest dose tested, 10 mg/kg p.o.) is reported as “Inactive”.
Regarding `N[C@@]1(C(=O)O)CC[C@H]2[C@H](C(=O)O)[C@H]21` (racemic) [Compound 3, (1SR,2SR,5RS,6SR) 2-Aminobicyclo[3.1.0]hexane-2,6-dicarboxylic Acid], the IC50 in assay [3] was determined as 320 nM.
Take `N[C@H](C(=O)O)[C@H]1C[C@@H]1C(=O)O` [L-CCG-I, (2S,3S,4S)-2-(carboxycyclopropyl)glycine]: in assay [10], the “agonist activity at cAMP-linked metabotropic glutamate receptors” value was “selective cAMP-linked metabotropic glutamate receptor agonist”. Further, the “activity at PI-linked metabotropic glutamate receptors” value in assay [11] is given as “activity at PI-linked metabotropic receptors”.
For `N[C@@]1(C(=O)O)CC[C@@H](C(=O)O)C1` [1S,3R-ACPD, (1S,3R)-1-Aminocyclo-pentane-1,3-dicarboxylic acid], the “agonist activity at cAMP-linked metabotropic glutamate receptors” value in [10] was “agonist of PI-linked and cAMP-linked metabotropic glutamate receptors”. Further, in [11], the “activity at PI-linked metabotropic glutamate receptors” value was “agonist of PI-linked and cAMP-linked metabotropic glutamate receptors”.
Turning to `CN1CCC[C@H]1c1cccnc1` [nicotine, reference compound], the “heightened startle response with nicotine replacement dose” value in assay [9] (0.03 mg/kg, i.p., or higher) is given as “did not display the same heightened startle response”. Also, in assay [9] (first three days after cessation, vs control rats receiving water, nicotine 6 mg/kg/day s.c.), the “auditory startle responding following cessation of chronic nicotine exposure” value is “significantly increased”.
